Laboratory results taken from publication PMC4740973 (Bioconjugate chemistry, 2015).
Read-outs that look alike come from different tables or passages of the source.

Key:
MMP-9 = MMP-9 (Mus musculus, UniProt P41245); assay: Peptide cleavage by recombinant MMP-9; format: biochemical; details: prinomastat added to prodrug with MMP-9, similar conditions (Figure S1)
[1] = cited from earlier work

Chain of MMP-9 (P41245 108-730): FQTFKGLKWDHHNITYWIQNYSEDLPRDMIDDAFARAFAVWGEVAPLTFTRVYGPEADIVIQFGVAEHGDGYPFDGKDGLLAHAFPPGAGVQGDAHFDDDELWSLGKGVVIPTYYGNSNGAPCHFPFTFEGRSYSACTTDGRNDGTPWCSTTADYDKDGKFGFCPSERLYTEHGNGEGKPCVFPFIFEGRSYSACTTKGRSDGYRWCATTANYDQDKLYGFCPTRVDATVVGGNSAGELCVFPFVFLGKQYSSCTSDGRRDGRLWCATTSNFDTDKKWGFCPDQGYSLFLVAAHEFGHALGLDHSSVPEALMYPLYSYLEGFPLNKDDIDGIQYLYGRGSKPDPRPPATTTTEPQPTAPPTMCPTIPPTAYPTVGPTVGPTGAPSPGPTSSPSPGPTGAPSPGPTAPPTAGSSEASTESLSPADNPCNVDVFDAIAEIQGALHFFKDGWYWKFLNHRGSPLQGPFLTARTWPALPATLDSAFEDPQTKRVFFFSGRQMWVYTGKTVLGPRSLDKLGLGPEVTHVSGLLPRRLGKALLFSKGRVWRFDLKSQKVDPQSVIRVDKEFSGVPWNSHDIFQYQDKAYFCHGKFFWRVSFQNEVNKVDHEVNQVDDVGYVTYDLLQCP

In the case of CC1(C)SCCN(S(=O)(=O)c2ccc(Oc3ccncc3)cc2)[C@H]1C(=O)NO [prinomastat], the “effect on prodrug cleavage by MMP-9” value (MMP-9) is reported as “prevented cleavage of the prodrug”.
For CC[C@H](C)[C@H](NC(=O)CN)C(=O)NCC(=O)N[C@@H](C)C(=O)N[C@H](C(=O)N[C@@H](CC(C)C)C(=O)N[C@@H](CCCCN)C(=O)N[C@H](C(=O)N[C@@H](CC(C)C)C(=O)N[C@H](C(=O)N[C@H](C(=O)NCC(=O)N[C@@H](CC(C)C)C(=O)N1CCC[C@H]1C(=O)N[C@@H](C)C(=O)N[C@@H](CC(C)C)C(=O)N[C@H](C(=O)N[C@@H](CO)C(=O)N[C@@H](Cc1c[nH]c2ccccc12)C(=O)N[C@H](C(=O)N[C@@H](CCCCN)C(=O)N[C@@H](CCCNC(=N)N)C(=O)N[C@@H](CCCCN)C(=O)N[C@@H](CCCNC(=N)N)C(=O)N[C@@H](CCC(N)=O)C(=O)N[C@@H](CCC(N)=O)C(N)=O)[C@@H](C)CC)[C@@H](C)CC)[C@@H](C)O)[C@@H](C)O)C(C)C)C(C)C [melittin, Melittin], the plasma half-life ([1]; free melittin) is given as 24 min and the plasma half-life ([1]; melittin incorporated onto perfluorocarbon nanoparticles) is given as “over 300 minutes”.
